Read-outs that look alike come from different tables or passages of the source.
What was measured:
[1] = Atropisomer interconversion, thermal challenge in organic solvent (acetonitrile); assay type: physicochemical
Method: (§1) The individual atropisomers of Compound (I), atropisomer 1 and atropisomer 2 (elution order from normal-phase chiral chromatography) were exposed to various conditions, including thermal challenge in both organic and aqueous media and exposure to simulated biological conditions, to ascertain whether they readily interconvert.
Samples of each separate atropisomers were held at 60° C. for four days and then analyzed by high performance liquid chromatography (AGMS02 Agilent 1100) on a normal phase amylose-based chiral column (ChiralPak IA-3, 3 μm, 100×4.6 mm, column 244), using isocratic elution and UV detection at 226 nm (see example 1).

[2] = Atropisomer interconversion, thermal challenge in aqueous solvent (dilute sodium bicarbonate); assay type: physicochemical
Method: as §1
Atropisomer 1 was dissolved in dilute aqueous sodium bicarbonate solution. Atropisomer 2 was dissolved in dilute aqueous sodium bicarbonate solution. […] Samples of the resulting solutions were exposed to room temperature (rt), 60° C., and 100° C. for four days. After four days, the samples were concentrated to dryness (SpeedVac evaporator—DNA120, property H001630), redissolved in acetonitrile and analyzed by high performance liquid chromatography (AGMS02 Agilent 1100) on a normal phase amylose-based chiral column (ChiralPak IA-3, 3 μm, 100×4.6 mm, column 244), using isocratic elution and UV detection at 226 nm (see example 1). […] Sample chromatograms at t0, 60° C., and 100° C. after four days, are depicted in FIG. 3A, FIG. 3B and FIG. 3C respectively.

[3] = In vitro metabolism, incubations with human liver microsomes; assay type: in vitro ADME
Method: (§2) Human liver microsomes (0.5 mg/mL; mixed gender, ultrapooled, BD Biosciences, catalog number 452117) were incubated at 37±1° C. in 0.2 mL (final volume) of incubation mixtures containing potassium phosphate buffer (100 mM, pH7.4), MgCl2 (3 mM), NADPH (1 mM), and the atropisomers (1, 10, or 50 μM) (all experiments performed in duplicate). Stock solutions of atropisomers were prepared with DMSO at 100 mM. The final concentration of DMSO in the incubation was at or less than 0.05%. Reactions were initiated by addition of NADPH solution and terminated at predetermined time point (30 min) by addition of stop reagent (300 μL chilled acetonitrile containing 0.1 μM of 7-hydroxycoumarin as an internal standard). After incubation, microsomal proteins were precipitated by centrifugation at 3300×g for 15 min at 4° C. Supernatant fractions were analyzed by LC-MS/MS.
(§3) HPLC mass spectrometer system: An API4000 triple quadrupole mass spectrometer equipped with electrospray ionization ion source was used for quantitation and operated in positive mode. The HPLC system consisted of a CTC Analytics PAL autosampler, an Agilent 1100 series degasser (G1379A), and an Agilent 1100 series binary pump (G1312A). […]
(§4) The formation of M3, M3c, M4 and M6 from each atropisomer in liver microsomal and recombinant CYP incubations was determined, based on the peak area ratio of analyte over internal standard (IS)

[4] = In vitro metabolism, human liver microsomes in the presence of mEH inhibitor valpromide; assay type: in vitro ADME
Method: as §2, with “atropisomer” for “and the atropisomers”, “50 μM) and valpromide (0, 50, or 100” for “50”, “duplicate).” for “duplicate). Stock solutions of atropisomers were prepared with DMSO at 100 mM. The final concentration of DMSO in the incubation was at or less than 0.05%.”
as §3, §4

recombinant human CYP2C9 = recombinant human CYP2C9 (Homo sapiens, UniProt P11712); assay: Metabolite formation with recombinant human CYP2C9; assay type: in vitro ADME
Chain of recombinant human CYP2C9 (P11712 whole entry): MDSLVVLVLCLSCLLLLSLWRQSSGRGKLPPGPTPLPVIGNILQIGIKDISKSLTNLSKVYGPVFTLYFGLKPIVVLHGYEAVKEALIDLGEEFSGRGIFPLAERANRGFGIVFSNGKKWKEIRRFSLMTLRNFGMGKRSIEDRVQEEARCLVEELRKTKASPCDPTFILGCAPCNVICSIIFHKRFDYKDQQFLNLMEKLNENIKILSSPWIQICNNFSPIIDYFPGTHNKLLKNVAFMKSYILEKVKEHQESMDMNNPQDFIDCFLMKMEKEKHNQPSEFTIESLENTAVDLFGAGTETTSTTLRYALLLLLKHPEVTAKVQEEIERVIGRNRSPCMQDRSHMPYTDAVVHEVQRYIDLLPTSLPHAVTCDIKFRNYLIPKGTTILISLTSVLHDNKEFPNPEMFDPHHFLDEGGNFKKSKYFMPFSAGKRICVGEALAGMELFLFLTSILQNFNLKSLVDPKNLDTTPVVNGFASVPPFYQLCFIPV
Method: as §4

[5] = In vivo human metabolism, plasma and urine pharmacokinetics after single oral dose of racemic Compound (I); conditions: human
Method: Plasma samples were collected prior to dosing (within 30 minutes before dosing) and at the following timepoints: 0.5, 1, 1.5, 2, 3, 4, 5, 6, 8, 10, 12, and 24 hours postdose. Urine was also collected. […] The supernatant was diluted with injection solvent and analyzed by HPLC with tandem mass spectrometry (LC/MS/MS). […] The calibration curves were linear over the concentration range between 5.00 ng/mL and 2000 ng/mL with a lower limit of quantification (LLOQ) of 5.00 ng/mL.
Using the above data, the following plasma pharmacokinetic parameters were calculated using validated Phoenix WinNonlin, version 6.3 (Pharsight Corporation, Mountain View, Calif.) and are shown (geometric mean 95% CI) in tables 11, 12, and 13 below.
• Cmax: Maximum observed concentration (μg/mL) • Tmax: Time of occurrence of maximum observed concentration (hr) • AUC0-24: Area under plasma concentration-vs-time curve, from time 0 to 24 hours postdose (μg·hr/mL) • C24: Concentration 24 hours post dose (μg/mL) • t1/2: Apparent terminal half-life (hr)

[6] = Urine PK Parameters (Geometric mean, CI 95%), single oral 400 mg racemic Compound (I)
[7] = plasma, geometric mean, single oral 400 mg racemic Compound (I)

In the case of `O=C(O)CSc1nnc(Br)n1-c1ccc(C2CC2)c2ccccc12` (single isomer, unassigned) [Atropisomer 1, (−)-2-(5-bromo-4-(4-cyclopropylnaphthalen-1-yl)-4H-1,2,4-triazol-3-ylthio)acetic acid], the “% Atropisomer 1” value ([1]; acetonitrile 0.25 mg/mL, t0) is reported as 99.7%, the “% Atropisomer 2” value ([1]; acetonitrile 0.25 mg/mL, t0) is reported as 0.3% and the “% Atropisomer 1” value ([1]; acetonitrile, 60° C. 4 days) is reported as 99.7%. For the same compound, the “% Atropisomer 2” value ([1]; acetonitrile, 60° C. 4 days) was 0.3%, the “% Atropisomer 1” value ([2]; 60° C. 4 days) was 99.8% and the “% Atropisomer 2” value ([2]; 60° C. 4 days) was 0.2%. The “% Atropisomer 1” value ([2]; 100° C. 4 days) was 99.6%, the “% Atropisomer 2” value ([2]; 100° C. 4 days) was 0.4% and the “% Atropisomer 1” value ([2]; rt, 4 days) was 99.8%. For the same compound, the “% Atropisomer 2” value ([2]; rt, 4 days) was 0.2%, the “% Atropisomer 1” value ([2]; t0 (control)) was 99.8% and the “% Atropisomer 2” value ([2]; t0 (control)) was 0.2%. The M3c formation [3] was “predominantly formed”, the “M3c level in the presence of valpromide (mEH inhibitor)” value [4] was “greatly increased” and the “Formation of M3c, CYP2C9 mediated, atropisomer 1 versus atropisomer 2” value (recombinant human CYP2C9) was “significantly greater”. For the same compound, the Ae0-24 [5, 6] was 66.3 mg, the CLR0-24 [5, 6] was 42.6 mL/min and the concentration at 0.5 h ([5]; male, plasma, po, 400 mg, 0.5 hr postdose, single oral 400 mg Compound (I) racemic mixture, adult male subjects) was 65 ng/mL. The concentration at 1 h ([5]; male, plasma, po, 400 mg, 1 hr postdose, single oral 400 mg Compound (I) racemic mixture, adult male subjects) was 1720 ng/mL, the concentration at 1.5 h ([5]; male, plasma, po, 400 mg, 1.5 hr postdose, single oral 400 mg Compound (I) racemic mixture, adult male subjects) was 3600 ng/mL and the concentration at 2 h ([5]; male, plasma, po, 400 mg, 2 hr postdose, single oral 400 mg Compound (I) racemic mixture, adult male subjects) was 4460 ng/mL. The concentration at 3 hr ([5]; male, plasma, po, 400 mg, 3 hr postdose, single oral 400 mg Compound (I) racemic mixture, adult male subjects) was 5740 ng/mL, the concentration at 4 hr ([5]; male, plasma, po, 400 mg, 4 hr postdose, single oral 400 mg Compound (I) racemic mixture, adult male subjects) was 4560 ng/mL and the concentration at 5 hr ([5]; male, plasma, po, 400 mg, 5 hr postdose, single oral 400 mg Compound (I) racemic mixture, adult male subjects) was 3430 ng/mL. It also gave a concentration at 6 hr ([5]; male, plasma, po, 400 mg, 6 hr postdose, single oral 400 mg Compound (I) racemic mixture, adult male subjects) of 1960 ng/mL, a concentration at 8 hr ([5]; male, plasma, po, 400 mg, 8 hr postdose, single oral 400 mg Compound (I) racemic mixture, adult male subjects) of 811 ng/mL and a concentration at 10 hr ([5]; male, plasma, po, 400 mg, 10 hr postdose, single oral 400 mg Compound (I) racemic mixture, adult male subjects) of 415 ng/mL. For the same compound, the concentration at 12 hr ([5]; male, plasma, po, 400 mg, 12 hr postdose, single oral 400 mg Compound (I) racemic mixture, adult male subjects) was 248 ng/mL, the concentration at 24 h ([5]; male, plasma, po, 400 mg, 24 hr postdose, single oral 400 mg Compound (I) racemic mixture, adult male subjects) was 33 ng/mL and the AUC(0-t) ([5]; male, plasma, po, 400 mg, Plasma Concentration (Mean), single oral 400 mg racemic Compound (I), read-out: AUC0-24) was 27100 ng·h/mL. The Cmax ([5]; male, plasma, po, 400 mg, Plasma Concentration (Mean), single oral 400 mg racemic Compound (I), read-out: Cmax) was 6600 ng/mL, the Cmax ([5]; male, plasma, po, 400 mg, plasma, geometric mean, single oral 400 mg racemic Compound (I), read-out: Cmax: Maximum observed concentration) was 6230 ng/mL and the half-life ([5]; male, plasma, po, 400 mg, plasma, geometric mean, single oral 400 mg racemic Compound (I), read-out: t1/2: Apparent terminal half-life (converted)) was 3.59 h. The concentration at 0 h ([5]; male, plasma, po, 400 mg, time 0 hr (prior to dosing), single oral 400 mg Compound (I) racemic mixture, adult male subjects) was 0 ng/mL, the Tmax ([5]; male, plasma, po, 400 mg, read-out: Tmax: Time of occurrence of maximum observed concentration) was 3 h and the “AUC0-24: Area under plasma concentration-vs-time curve, from time 0 to 24 hours postdose” value [5, 7] was 25.9 µg·h/mL. The “C24 h: Concentration 24 hours post dose” value [5, 7] was 21.6 ng/mL.

From US20170319552A1, “ATROPISOMERS OF TRIAZOLE DERIVATIVE” (ARDEA BIOSCIENCES, INC., priority 2016, published 2017)
